The structures appear in SMILES notation. Residues, ends and D or L forms follow the SMILES beside them. *: point of attachment. Cbz = O=C(OCc1ccccc1)* Bounds are passed on as bounds.

The melting point is the temperature of the solid-liquid transition.

`CCCc1nn(C)c2c(=O)[nH]c(-c3cc(-n4ccnc4)ccc3OCC)nc12`: the melting point is 193 to 194 °C.

For `O=C(Cl)c1c(Cl)c(Cl)c(C(F)(F)F)c(Cl)c1Cl`, the melting point lay in the range of 72 to 76 °C.

Consider `Cc1ccc(NC(=O)c2cccc(N(C)C)c2)cc1Nc1ncc(-c2cccnc2)o1`, for which the melting point was 228 °C.

`CC(C)(C)c1ccc(Cn2cc(C(=O)C(=O)O)c3cc(-c4ccc(Cl)cc4)ccc32)cc1` returned a melting point of 183 to 184 °C.

With `O=C(O)COc1ccc(SCc2ccc(OCc3ccc(C(F)(F)F)cc3)cc2)c2c1CCC2`, the melting point stood at 145 °C.

`CS(=O)(=O)c1ccc(-c2cnn(-c3ccc(F)cc3F)c(=O)c2-c2ccc(F)cc2)cc1` came in with a melting point of 245 to 247 °C.

With `Cc1cc(O)c([N+](=O)[O-])c(=O)n1CC(=O)OCc1ccccc1`, the melting point lay within 146 to 147 °C.

`Fc1ccc(CN2CCC(Nc3ccc(C(F)(F)F)nn3)CC2)cc1F` came in with a melting point of 168 to 169 °C.

As to `CCCCC(=O)OCC1OC(n2cnc3c(OC)nc(N)nc32)C(O)C1O` (stereo not given), the melting point stood at 105 °C.

In the case of `N#Cc1ccc(C(=C2CCCCCC2)c2nc[nH]n2)cc1`, the melting point was 79 to 80 °C.

In the case of `CCCn1c(=O)c2c(NC(C)=O)n[nH]c2n(Cc2ccccc2)c1=O`, the melting point was 108 to 110 °C.

`COc1ccc2c(cc(CCC(=O)O)n2S(=O)(=O)c2ccccc2)n1` showed a melting point of 136 to 139 °C.

The molecule `Cc1c(Cc2ccncc2)nnc(Nc2ccc(Cl)cc2)c1C` showed a melting point of 196 to 199 °C.

`FC(F)c1nc2ccccc2n1-c1nc(-c2cncnc2)cc(N2CCOCC2)n1` returned a melting point of 209 to 211 °C.

Take `O=C1NCN(c2ccc(F)cc2)C12CCN(CCCN(c1ccc(F)cc1)c1ccc(F)cc1)CC2`: the melting point fell in the range of 162 to 163 °C.

Regarding `COC(=O)c1cn(S(=O)(=O)c2ccc(C)cc2)c(C)c1C`, the melting point was 108 to 114 °C.

In turn, `Cc1ccccc1-c1ccc(C=O)cn1` came in with a melting point of 82 to 84 °C.

Take `CCc1nc2c(cnn2CC)c(NC2CCOCC2)c1CNC(=O)c1cccc(C(=O)NCc2cc(Cl)cc(-c3cccc(CN4CCN(C)CC4)c3)c2)c1`: the melting point fell in the range of 116 to 118 °C.

Molecule `COc1cc(OCCOc2ccccc2)c2c(=O)[nH]c(-c3cc(C)nc(C)c3)nc2c1` showed a melting point of 172 to 173 °C.

Turning to `CCCCCCCN(CCCCCCCCSc1nc(-c2ccccc2)c(-c2ccccc2)[nH]1)C(=O)Nc1ccc(F)cc1F`, the melting point lay in the range of 89 to 91 °C.

With `COc1cc(C=CC(CCc2ccco2)=NO)ccc1O`, the melting point lay within 110 to 120 °C.

Molecule `Cc1ccc2c(c1)nnn2C(=O)N(c1ccccc1)c1ccccc1` came in with a melting point of 132 to 133 °C.

For `CCOC(=O)c1cnn(-c2ccc(OC(F)(F)F)cc2)c1`, the melting point lay in the range of 114 to 116 °C.

Turning to `Cn1cc(Br)cc(N)c1=O`, the melting point was in the range of 104 to 105 °C.

In turn, `CCn1c(=O)c2c(nc(/C=C/c3ccc(C)cc3)n2C)n(CC)c1=O` came in with a melting point of 171 to 172 °C.

Take `COC(=O)[C@H](Cc1ccc(CC(=O)O)cc1)NC(=O)OC(C)(C)C`: the melting point was in the range of 141 to 143 °C.

Regarding `NNC(=O)c1ccc2[nH]nnc2c1`, the melting point lay in the range of 295 to 296 °C.

In the case of `CSCc1cccc(CNC(=O)c2nc3scc(COCc4ccc(C(=O)O)cc4)c3c(=O)[nH]2)c1`, the melting point fell in the range of 222 to 223 °C.

`COc1cccc(Oc2c(NS(=O)(=O)c3ccc(C(C)(C)C)cc3)ncnc2SCCO)c1` gave a melting point of 150 °C.

With `CN1CCN(c2ncc3c(=O)c(C(=O)O)cn(C4CC4)c3n2)CC1`, the melting point was in the range of 209 to 210 °C.

For `CC(=O)NC(C)(C)Cc1ccc2c(c1)CCC2`, the melting point was in the range of 130 to 131 °C.

For `CC1(c2cccc3c2CCc2ccccc2C3=O)OCCO1`, the melting point was 144 to 145 °C.

As for `CCOC(=O)Cn1c(=O)c2cc(Cl)ccc2n(Cc2ccc(Cl)cc2)c1=O`, the melting point fell in the range of 137 to 138 °C.

Turning to `CC(C)C(CN=C(O)C(Cl)=C(Cl)C(=O)O)c1ccc(Cl)cc1` (stereo not given), the melting point lay in the range of 91 to 92 °C.

The molecule `CCCOc1ccc(CN2CCC(C(N)=O)CC2)cc1` had a melting point of 142 to 146 °C.

As to `CCOP(=O)(OCC)c1ccc(/C=C/c2ccc3c(c2)C(C)(C)CCC3(C)C)cc1`, the melting point is 83 to 84 °C.

For the molecule `O=C(O)CCc1cc(OCc2ccccc2)nn1Cc1ccc(Cl)cc1Cl`, the melting point lay within 98 to 101 °C.

`C=CCn1cc(C(=O)O)c(=O)c2cc(F)c(F)c(F)c21`: the melting point lay within 194 to 197 °C.

For the molecule `O=C(NCCSCc1cccc(Cl)c1)c1c(Br)cccc1Br`, the melting point fell in the range of 55 to 57 °C.

`COc1cc(/C=C/C=C/C(=O)NCCN2CCC(c3c[nH]c4ccccc34)CC2)ccc1OC(C)=O` displayed a melting point of 101 to 105 °C.

`CCN1CCN(Cc2ccc(-c3cc4c(NCc5cccc(Cl)c5)ncnc4[nH]3)cc2)CC1` had a melting point of 241 to 243 °C.

`COc1cc(C(=O)N2CCC(CCN3CCC(Nc4nc5ccccc5n4Cc4ccc(Cl)s4)CC3)(c3ccc(F)c(F)c3)C2)cc(OC)c1OC` (stereo not given) returned a melting point of 110 to 120 °C.

As to `COC(=O)c1cc(C(=O)OC)cc(-c2ccccc2)c1`, the melting point is 91 to 92 °C.

In turn, `COC(=O)[C@H](O)[C@@H](NC(=O)c1ccccc1)c1ccccc1` came in with a melting point of 184 to 185 °C.

As for `CCn1c(C)nc2cc(C(F)(F)F)c(Cl)c([N+](=O)[O-])c21`, the melting point lay in the range of 114 to 116 °C.

In the case of `CCOC(=O)[C@H]1[C@@H]2C=CC(=O)[C@@H]21` (racemic), the melting point lay within 77 to 78 °C.

The molecule `CN(C)C1CCCC(C(=O)N2CCC(c3[nH]nc4c3C(=O)c3c(NC(=O)NN5CCOCC5)cccc3-4)CC2)C1` (stereo not given) returned a melting point of 153 to 155 °C.

Regarding `Fc1ccc(C2CC3CCC(C3)C23CO3)cc1` (stereo not given), the melting point fell in the range of 178 to 180 °C.

As for `CNc1nc(Cl)c(Cl)c(N2CCN(CC[C@H]3CC[C@H](NC(=O)OC(C)(C)C)CC3)CC2)n1`, the melting point lay in the range of 199 to 202 °C.

`CCCCCCCCCCCCCCOc1ccccc1NC(=O)c1cc(Sc2nnnn2-c2cccc(C(=O)O)c2)c2ccccc2c1O` gave a melting point of 136 to 138 °C.

`CCOC(=O)Cc1ccc(NC(=O)C(COc2cccc(Cl)c2)NS(=O)(=O)c2ccc(I)cc2)cc1` (racemic): the melting point was 169 to 170 °C.

In turn, `CCCCCCOc1ccc(CC(C)C(=O)Oc2ccc(-c3ccc(F)cc3)cc2)cc1` (stereo not given) showed a melting point of 78.4 to 79.5 °C.

Consider `COc1ccc(-c2cc(C(=O)O)sc2-c2ccc(F)cc2)cc1`, for which the melting point was in the range of 204 to 206 °C.

Molecule `CC1(CNC(=O)OCc2ccccc2)Cn2cc([N+](=O)[O-])nc2O1` (stereo not given) showed a melting point of 171 to 172 °C.

`COC(=O)C=Cc1cccc2cc[nH]c12` came in with a melting point of 85 to 86 °C.

As to `CC1CCCCN1c1ccc([N+](=O)[O-])cc1C(=O)c1ccc(Cl)cc1` (stereo not given), the melting point turned out to be 142 °C.

Consider `O=C(c1ccc(F)cc1)N1CCC[C@H](c2noc([C@@H](O)c3ccccc3)n2)C1`, for which the melting point was 168 to 172 °C.

In turn, `Cc1ccc(C)c(SCCCCCCCC(=O)O)c1` displayed a melting point of 60 to 63 °C.

For `CN1CCN(c2ccc(Nc3ncc4ccc(-c5ccc(S(C)(=O)=O)cc5)n4n3)cc2)CC1`, the melting point fell in the range of 234 to 238 °C.

The molecule `COc1ccc2c(C)c3n(c2c1)CCCC3NC=O` (stereo not given) showed a melting point of 181 to 182 °C.

Molecule `O=C(OCC(Cl)(Cl)Cl)c1ccc2c(c1)C(C(Cl)(Cl)Cl)OC(C(Cl)(Cl)Cl)O2` (stereo not given) registered a melting point of 129 to 130 °C.

Molecule `Cc1ccc(-c2c(NS(=O)(=O)c3ccc(C(C)(C)C)cc3)nc(C(C)C)nc2OCCO)cc1` had a melting point of 143 to 144 °C.

Consider `Cc1cc([N+](=O)[O-])c(C)c(Cl)c1Oc1ccc(Cl)c2ccccc12`, for which the melting point was in the range of 135 to 137 °C.

Consider `O=C(C(=O)c1ccc(Cl)cc1)c1ccncc1`, for which the melting point lay within 119 to 120 °C.

For `CCC(=O)SCC(C)C(=O)N1C(C(=O)O)CC2CCCCC21` (stereo not given), the melting point lay within 170 to 172 °C.

On to `CCCCCCCCCCCCCCCCCCS(=O)c1cc2ccccc2c(N)c1O` (stereo not given), for which the melting point fell in the range of 95 to 97 °C.

As to `CS(=O)(=O)Nc1cc2oc(N)c(C(N)=O)c(=O)c2cc1Oc1ccccc1`, the melting point was over 250 °C.

Consider `COC(=O)C(Cc1ccccc1)NC(=O)C(CC(N)=O)NC(=O)C(CO)NC(=O)OCc1ccccc1` (stereo not drawn) (Cbz-Ser-Asn-Phe-OMe; configuration not given here), for which the melting point was in the range of 180 to 183 °C.

On to `c1ccc2c(c1)CCC(n1ccnc1)C2` (stereo not given), for which the melting point lay within 93 to 95 °C.

On to `Oc1ccccc1-c1cc(-c2ccc(F)c(F)c2)cc(-c2ccc3ccccc3c2)n1`, for which the melting point was 165 to 167 °C.

Regarding `O=C1OC(=O)c2c(F)cc(F)cc21`, the melting point fell in the range of 87 to 89 °C.

Consider `CS(=O)c1ccc(C2=C(c3ccccc3)C(=O)C(C)(C)O2)cc1Cl` (stereo not given), for which the melting point was 120 to 121 °C.

Molecule `CCOC(=O)C1=C(N)NC(N)=C(C(=O)OCC)C1c1ccccc1[N+](=O)[O-]` gave a melting point of 142 °C.

The molecule `CN(C1CCCCC1)S(=O)(=O)c1ccc(CCSn2cnc3ccccc32)cc1` came in with a melting point of 60 to 63 °C.

For the molecule `CCCCc1cc(C(=O)O)c(=O)n(CCCC)c1C`, the melting point lay in the range of 106 to 108 °C.

As for `CCOC(=O)NN(C)c1cc(C)c(-c2ccc(C#N)cc2)nn1`, the melting point was 138 to 142 °C.

For `Cc1c(C)c2c(c(C)c1O)CCC(COc1ccc(CC3SC(=O)NC3=O)cc1)O2` (stereo not given), the melting point was in the range of 158 to 159 °C.

Consider `COCCOCOc1c(C(C)(C)C)cc(-c2noc(=O)[nH]2)cc1C(C)(C)C`, for which the melting point was 112 to 114 °C.

Molecule `O=C(O)CCC(=O)N1CCN2C(=O)OC(c3ccccc3)(c3ccccc3)C2C1` (stereo not given) came in with a melting point of 158 to 164 °C.

Regarding `O=C1OC2(CC(c3ccccc3)=NO2)c2ccccc21` (stereo not given), the melting point was 103 to 106 °C.

As to `CCN(C(=O)OC)c1c(C(=O)c2cnoc2C2CC2)ccc(Cl)c1Cl`, the melting point is 76 to 78 °C.

For the molecule `O=[N+]([O-])c1c(NCCO)cc(Cl)cc1NCCO`, the melting point is 154 °C.

`CCOC(Cc1ccc(OCCN2CCOc3ccccc32)cc1)C(=O)NCc1ccccc1` (stereo not given): the melting point fell in the range of 94 to 96 °C.

`N#Cc1ccc(CCCN2C(=O)c3ccccc3C2=O)cc1` showed a melting point of 138 to 140 °C.

Consider `COC(=O)CC1(C)Oc2ccc([N+](=O)[O-])cc2-n2c(Cl)ccc21` (stereo not given), for which the melting point lay in the range of 124 to 125 °C.

The values above are taken from a melting point compilation (Tetko et al.; mined from patent text by program, amines drawn as free bases though some values may be those of a salt).
